In BindingDB's records for doi:10.1016/S0960-894X(98)00544-7 (University of Ferrara, 1999):

Test: Inhibition of Ha-ras polymerase-chain reaction product

## COC(=O)CCOc1cc2c(cc1OC)C(=O)N1CCC[C@H]1C=N2 [3-((S)-7-Methoxy-5-oxo-2,3,5,11a-tetrahydro-1H-benzo[e]pyrrolo[1,2-a][1,4]diazepin-8-yloxy)-propionic acid methyl ester]
  IC50: > 300 µM
